Each block holds one compound with its values, some of them ahead of it. Calls of active or inactive are those of the source. The calls are words filed in the database; no cut-off is given here.
Key:
[1] = target: Nicotinamide phosphoribosyltransferase (Homo sapiens, UniProt P43490); assay: Inhibition of human NAMPT using NAM as substrate assessed as NMN formation preincubated for 5 mins followed by substrate addition measured after 15 mins by fluorometric assay
[2] = target: Nicotinamide phosphoribosyltransferase (Mus musculus) (UniProt Q99KQ4); settings: Superior cervical ganglion, 100 nM
Sequence of Nicotinamide phosphoribosyltransferase (Mus musculus) (Q99KQ4 whole entry, looked up): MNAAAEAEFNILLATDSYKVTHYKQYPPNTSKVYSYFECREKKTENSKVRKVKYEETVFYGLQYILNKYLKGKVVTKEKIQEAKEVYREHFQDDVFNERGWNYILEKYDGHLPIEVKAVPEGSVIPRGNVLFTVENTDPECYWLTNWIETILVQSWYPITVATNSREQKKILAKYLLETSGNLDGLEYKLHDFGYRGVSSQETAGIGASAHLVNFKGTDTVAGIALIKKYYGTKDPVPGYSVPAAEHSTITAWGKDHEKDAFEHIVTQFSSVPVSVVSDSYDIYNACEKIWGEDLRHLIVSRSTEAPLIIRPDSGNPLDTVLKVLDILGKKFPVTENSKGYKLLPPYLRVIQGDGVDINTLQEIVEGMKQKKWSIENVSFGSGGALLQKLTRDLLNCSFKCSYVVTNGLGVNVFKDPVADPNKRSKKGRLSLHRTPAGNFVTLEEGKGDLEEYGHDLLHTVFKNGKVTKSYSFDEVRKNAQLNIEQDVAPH
Description: Inhibition of NAMPT in neonatal mouse superior cervical ganglion explant assessed as delay in degeneration of injured axons at 100 nM treated <10 mins prior to axon transection meaured at 8 to 24 hrs by phase contrast microscopy

[3] = Plasma protein binding in human; assay type: ADME, cell-free; settings: read-out: PPB (converted)
CYP1A2 = target: T1, CYP1A2 (Homo sapiens, UniProt P05177); assay: Inhibition of CYP1A2 (unknown origin) at 3 uM relative to control; assay type: ADME
T1 sequence (P05177 whole entry): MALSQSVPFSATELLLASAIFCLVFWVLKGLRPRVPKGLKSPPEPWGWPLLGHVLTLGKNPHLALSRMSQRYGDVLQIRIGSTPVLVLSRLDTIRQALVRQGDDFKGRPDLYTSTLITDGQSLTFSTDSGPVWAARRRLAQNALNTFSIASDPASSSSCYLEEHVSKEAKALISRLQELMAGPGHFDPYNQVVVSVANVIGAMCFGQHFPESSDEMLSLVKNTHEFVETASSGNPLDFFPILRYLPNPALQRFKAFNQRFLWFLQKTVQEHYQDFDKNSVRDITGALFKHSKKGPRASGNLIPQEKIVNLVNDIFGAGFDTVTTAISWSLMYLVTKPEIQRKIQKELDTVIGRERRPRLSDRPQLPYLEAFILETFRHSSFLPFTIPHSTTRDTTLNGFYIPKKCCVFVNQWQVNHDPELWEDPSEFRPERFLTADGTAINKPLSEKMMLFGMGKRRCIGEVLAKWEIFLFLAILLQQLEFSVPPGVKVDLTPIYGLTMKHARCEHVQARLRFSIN

CYP2C9 = CYP2C9 (Homo sapiens, UniProt P11712); assay: Inhibition of CYP2C9 (unknown origin) at 3 uM relative to control; assay type: ADME
Sequence of CYP2C9 (P11712 whole entry): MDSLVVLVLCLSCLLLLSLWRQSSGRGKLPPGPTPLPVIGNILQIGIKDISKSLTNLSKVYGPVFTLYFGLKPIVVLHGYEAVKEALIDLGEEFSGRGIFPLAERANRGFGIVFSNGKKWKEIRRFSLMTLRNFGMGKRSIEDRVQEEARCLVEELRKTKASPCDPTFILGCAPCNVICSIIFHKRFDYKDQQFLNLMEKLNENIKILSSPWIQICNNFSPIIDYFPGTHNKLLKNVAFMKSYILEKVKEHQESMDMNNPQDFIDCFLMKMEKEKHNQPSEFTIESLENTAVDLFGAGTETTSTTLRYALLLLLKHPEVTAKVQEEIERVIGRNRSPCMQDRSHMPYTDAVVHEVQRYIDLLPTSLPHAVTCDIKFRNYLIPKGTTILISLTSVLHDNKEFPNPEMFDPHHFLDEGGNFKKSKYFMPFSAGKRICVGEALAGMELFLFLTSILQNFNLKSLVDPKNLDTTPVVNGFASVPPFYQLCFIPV

CYP2D6 = CYP2D6 (Homo sapiens, UniProt P10635); assay: Inhibition of CYP2D6 (unknown origin) at 3 uM relative to control; assay type: ADME
Sequence of CYP2D6 (P10635 whole entry): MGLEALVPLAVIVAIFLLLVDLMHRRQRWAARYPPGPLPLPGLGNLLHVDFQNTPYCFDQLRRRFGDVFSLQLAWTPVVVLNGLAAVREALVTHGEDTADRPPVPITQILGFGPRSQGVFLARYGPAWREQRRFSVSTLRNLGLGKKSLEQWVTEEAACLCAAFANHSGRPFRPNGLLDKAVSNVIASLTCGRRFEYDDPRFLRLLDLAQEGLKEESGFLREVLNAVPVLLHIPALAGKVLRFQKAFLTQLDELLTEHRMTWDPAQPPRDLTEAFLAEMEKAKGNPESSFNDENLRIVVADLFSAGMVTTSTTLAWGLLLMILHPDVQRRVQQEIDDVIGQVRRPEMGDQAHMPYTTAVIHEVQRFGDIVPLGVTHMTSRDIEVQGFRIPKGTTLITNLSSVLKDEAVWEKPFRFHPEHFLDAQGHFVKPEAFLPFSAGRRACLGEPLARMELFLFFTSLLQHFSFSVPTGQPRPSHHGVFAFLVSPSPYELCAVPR

CYP3A4 = CYP3A4 (Homo sapiens, UniProt P08684); assay: Inhibition of CYP3A4 (unknown origin) at 3 uM relative to control; assay type: ADME
Sequence of CYP3A4 (P08684 whole entry): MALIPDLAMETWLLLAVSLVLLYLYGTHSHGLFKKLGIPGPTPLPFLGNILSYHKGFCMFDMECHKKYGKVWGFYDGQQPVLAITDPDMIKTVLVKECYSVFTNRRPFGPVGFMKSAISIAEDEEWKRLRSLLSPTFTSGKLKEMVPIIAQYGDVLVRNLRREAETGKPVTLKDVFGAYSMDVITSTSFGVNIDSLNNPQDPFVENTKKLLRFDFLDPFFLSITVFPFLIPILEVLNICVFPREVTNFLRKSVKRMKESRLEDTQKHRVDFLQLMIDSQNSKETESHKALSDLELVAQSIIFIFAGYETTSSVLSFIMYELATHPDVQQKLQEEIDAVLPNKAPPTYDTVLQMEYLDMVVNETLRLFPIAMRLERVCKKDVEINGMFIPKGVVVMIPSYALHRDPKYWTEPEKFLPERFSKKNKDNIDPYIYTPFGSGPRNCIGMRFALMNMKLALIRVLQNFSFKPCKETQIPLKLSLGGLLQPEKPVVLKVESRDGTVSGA

[4] = Metabolic stability in human liver microsomes assessed as parent compound remaining at 5 uM measured at 30 mins in presence of NADPH; assay type: ADME; settings: read-out: Stability
[5] = Metabolic stability in human liver microsomes assessed as parent compound remaining at 5 uM measured at 30 mins in absence of NADPH; assay type: ADME; settings: read-out: Stability
[6] = Metabolic stability in mouse liver microsomes assessed as parent compound remaining at 5 uM measured at 30 mins in presence of NADPH; assay type: ADME; settings: read-out: Stability
[7] = Metabolic stability in mouse liver microsomes assessed as parent compound remaining at 5 uM measured at 30 mins in absence of NADPH; assay type: ADME; settings: read-out: Stability
[8] = Permeability across human Caco2 cells assessed as drug recovery; assay type: ADME, cell-based; settings: Caco-2, read-out: Drug recovery
[9] = target: Nicotinamide phosphoribosyltransferase (Mus musculus) (UniProt Q99KQ4); assay: Inhibition of NAMPT in neonatal mouse superior cervical ganglion explant assessed as delay in degeneration of injured axons at 1 uM treated <10 mins prior to axon transection meaured at 8 hrs by phase contrast microscopy; assay type: tissue-based

Sequence of Nicotinamide phosphoribosyltransferase (P43490 whole entry): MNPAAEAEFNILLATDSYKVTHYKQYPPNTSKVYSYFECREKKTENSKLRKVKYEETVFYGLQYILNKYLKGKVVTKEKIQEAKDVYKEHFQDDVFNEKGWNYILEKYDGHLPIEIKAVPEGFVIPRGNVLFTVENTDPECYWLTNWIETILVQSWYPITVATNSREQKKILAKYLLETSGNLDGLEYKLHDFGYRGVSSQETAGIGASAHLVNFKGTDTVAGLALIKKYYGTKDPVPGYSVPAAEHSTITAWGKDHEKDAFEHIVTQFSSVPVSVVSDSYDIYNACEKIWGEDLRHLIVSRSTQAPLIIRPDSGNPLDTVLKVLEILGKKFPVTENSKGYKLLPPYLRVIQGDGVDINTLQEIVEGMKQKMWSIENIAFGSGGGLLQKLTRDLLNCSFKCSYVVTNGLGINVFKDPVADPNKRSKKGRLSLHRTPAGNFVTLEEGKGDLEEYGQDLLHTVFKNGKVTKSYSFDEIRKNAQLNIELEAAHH

inhibition [2]: Active
Compound: O=C(/C=C/c1cccnc1)NCCCCC1CCN(C(=O)c2ccccc2)CC1

IC50 [1]: 940 nM
Compound: CC1(C)Cc2cccc(OCCNC(=O)/C=C/c3cccnc3)c2O1

IC50 [1]: 670 nM
Compound: O=C(/C=C/c1cccnc1)Nc1ccc(-c2nnc3n2CCCCC3)cc1

IC50 [1]: 220 nM
Compound: O=C(/C=C/c1cccnc1)Nc1ccc(C(=O)NCC(F)(F)F)cc1

IC50 [1]: 780 nM
Compound: O=C(/C=C/c1cccnc1)N1CCN(Cc2ccc(OC(F)(F)F)cc2)CC1

Continued, compound first:

Compound: O=C(/C=C/c1cccnc1)N1CCN(Cc2csc(-c3ccc(F)cc3)n2)CC1
IC50 [1]: 3200 nM

Compound: O=C(NCc1cccnc1)c1cc2n(n1)CCN(Cc1ccc(Cl)c(Cl)c1)C2=O
IC50 [1]: 320 nM

Compound: O=C(c1cc(-c2cccnc2)n[nH]1)N1CCN(C(=O)c2cc3ccccc3[nH]2)CC1
IC50 [1]: 3800 nM

Compound: O=C(COc1ccc(S(=O)(=O)Nc2ccc(Cl)cc2)cc1)NCc1cccnc1
IC50 [1]: 1900 nM

Compound: CCCCc1ccc(NC(=O)C2CC2c2cccnc2)cc1 (stereo not drawn)
IC50 [1]: 41.8 nM
fraction unbound [3]: 0.008
inhibition at 3 µM (CYP1A2): 22%
inhibition at 3 µM (CYP2C9): 31%
inhibition at 3 µM (CYP2D6): 1%
inhibition at 3 µM (CYP3A4): 63%
remaining at 0.5 h, 5 µM [4]: 7%
remaining at 0.5 h, 5 µM [5]: 96%
remaining at 0.5 h, 5 µM [6]: 43%
remaining at 0.5 h, 5 µM [7]: 87%
recovery [8]: < 70%

Compound: O=C(NCCOc1ccc2ccccc2c1)NCc1cccnc1
IC50 [1]: 5000 nM

Compound: O=C(c1cc(-c2cccnc2)[nH]n1)N1CCN(C(c2ccccc2)c2ccccc2)CC1
IC50 [1]: 243 nM
fraction unbound [3]: 0.004
inhibition at 3 µM (CYP1A2): 23%
inhibition at 3 µM (CYP2C9): 43%
inhibition at 3 µM (CYP2D6): 3%
inhibition at 3 µM (CYP3A4): 20%
remaining at 0.5 h, 5 µM [4]: 63%
remaining at 0.5 h, 5 µM [5]: 104%
remaining at 0.5 h, 5 µM [6]: 19%
remaining at 0.5 h, 5 µM [7]: 96%
recovery [8]: < 70%
inhibition [9]: Active

Reference: ChEMBL document CHEMBL3797081, “Application of virtual screening to the discovery of novel nicotinamide phosphoribosyltransferase (NAMPT) inhibitors with potential for the treatment of cancer and axonopathies” (Bioorg Med Chem Lett, 2016)
